Here are results for 31 molecules from patent US7335665B2, “Spirocyclic piperidines as MCH1 antagonists and uses thereof” (H - Lundbeck A/S, priority 2003, dated 2008).

T1 sequence (P97639 whole entry): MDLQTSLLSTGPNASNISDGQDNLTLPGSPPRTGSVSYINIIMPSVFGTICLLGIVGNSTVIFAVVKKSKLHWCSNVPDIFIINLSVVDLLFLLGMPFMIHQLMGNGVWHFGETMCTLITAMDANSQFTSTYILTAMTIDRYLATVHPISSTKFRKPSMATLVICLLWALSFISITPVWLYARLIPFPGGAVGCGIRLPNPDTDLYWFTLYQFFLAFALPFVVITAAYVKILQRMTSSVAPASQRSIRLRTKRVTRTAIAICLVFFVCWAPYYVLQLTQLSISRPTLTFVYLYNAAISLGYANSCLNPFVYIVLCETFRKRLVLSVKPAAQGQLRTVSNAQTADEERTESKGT

The first assay concerns the target T1, rat MCH1 receptor (Rattus norvegicus, UniProt P97639).
T1 construct: expressed in transfected cells; host or cells: Human embryonic kidney Peak rapid 293 cells (Peakr293), transient, calcium phosphate; membranes
The experiment in a line: Radioligand binding assay at cloned rat MCH1 receptor ([3H]Compound A displacement). Conditions: KI, cloned rat MCH1, membranes of transfected Peakr293 cells, 0.08 nM [3H]Compound A, 25° C., 90 minutes. The protocol: For binding assays, pellets of transfected cells are suspended in ice-cold buffer (20 mM Tris.HCl, 5 mM EDTA, pH 7.4) and homogenized by sonication for 7 sec. The cell lysates are centrifuged at 200×g for 5 min at 4° C. The supernatants are then centrifuged at 40,000×g for 20 min at 4° C. The resulting pellets are washed once in the homogenization buffer and suspended in binding buffer (see methods for radioligand binding). Protein concentrations are determined by the method of Bradford (1976) using bovine serum albumin as the standard. Binding assays are usually performed immediately, however it is possible to prepare membranes in batch and store frozen in liquid nitrogen for future use.
Radioligand binding assays for the rat MCH1 receptor were carried out using plasmid pcDNA3.1-rMCH1-f (ATCC Patent Deposit Designation No. PTA-3505). Plasmid pcDNA3.1-rMCH1-f comprises the regulatory elements necessary for expression of DNA in a mammalian cell operatively linked to DNA encoding the rat MCH1 receptor so as to permit expression thereof. Plasmid pcDNA3.1-rMCH1-f was deposited on Jul. 5, 2001, with the American Type Culture Collection (ATCC), 12301 Parklawn Drive, Rockville, Md. 20852, U.S.A. under the provisions of the Budapest Treaty for the International Recognition of the Deposit of Microorganisms for the Purposes of Patent Procedure and was accorded ATCC Patent Deposit Designation No. PTA-3505.
Human embryonic kidney Peak rapid 293 cells (Peakr293 cells) were transiently transfected with DNA encoding the MCH1 receptor utilizing the calcium phosphate method and cell membranes were prepared as described above. Binding experiments with membranes from Peakr293 cells transfected with the rat MCH1 receptor were performed with 0.08 nM [^3H]Compound A (custom labeled by Amersham) (the synthesis of Compound A is described in detail below) using an incubation buffer consisting of 50 mM Tris pH 7.4, 10 mM MgCl2, 0.16 mM PMSF, 1 mM 1,10 phenantroline and 0.2% BSA. Binding was performed at 25° C. for 90 minutes. Incubations were terminated by rapid vacuum filtration over GF/C glass fiber filters, presoaked in 5% PEI using […] Tris pH 7.4 as wash buffer. In all experiments, nonspecific binding is defined using […] Compound A.
The compounds described above were assayed using cloned rat MCH1.
On to `CC(C(=O)NCCCN1CCC2(C=Cc3ccccc32)CC1)(c1ccccc1)c1ccccc1` [Example 63, 2,2-DIPHENYL-N-(3-(SPIRO[INDENE-1,4′-PIPERIDINE]-10-YL)PROPYL)PROPANAMIDE], for which the inhibition constant (Ki) came to 46 nM.

`O=C(NCCCN1CCC2(CCc3ccccc32)CC1)C(c1ccccc1)(c1ccccc1)c1ccccc1` [Example 49, 2,2,2-TRIPHENYL-N-(3-(SPIRO[INDANE-1,4′-PIPERIDINE]-10-YL)PROPYL)ACETAMIDE] gave a Ki of 121 nM.

For `O=C(Cc1ccc(F)c(F)c1)NCCCN1CCC2(CC1)OCc1ccccc12` [Example 86, 2-(3,4-DIFLUOROPHENYL)-N-(3-(SPIRO[1,3-DIHYDROISOBENZOFURAN-1,4′-PIPERIDINE]-10-YL)PROPYL)ACETAMIDE], the affinity, expressed as Ki, was 379 nM.

Consider `O=C(NCCCCN1CCC2(CCc3ccccc32)CC1)c1ccc(Oc2cc(Cl)cc(Cl)c2)o1` [Example 15, [5-(3,5-dichlorophenoxy)(2-furyl)]-N-(4-(SPIRO[indane-1,4′-piperidine]-10-YL)BUTYL)carboxamide], for which the affinity corresponds to a Ki of 434 nM.

The molecule `O=C(NCCCN1CCC2(C=Cc3ccccc32)CC1)C(c1ccccc1)(c1ccccc1)c1ccccc1` [Example 64, 2,2,2-TRIPHENYL-N-(3-(SPIRO[INDENE-1,4′-PIPERIDINE]-10-YL)PROPYL)ACETAMIDE] registered an inhibition constant Ki of 36 nM.

Consider `CC(C)(C(=O)NCCCN1CCC2(C=Cc3ccccc32)CC1)c1ccc(Cl)cc1` [Example 65, 2-(4-CHLOROPHENYL)-2-METHYL-N-(3-(SPIRO[INDENE-1,4′-PIPERIDINE]-10-YL)PROPYL)PROPANAMIDE], for which the affinity, expressed as Ki, was 78 nM.

For `O=C(NCCCN1CCC2(CC1)OCc1cc(F)c(F)c(F)c12)C(c1ccccc1)c1ccccc1` [Example 99, 2,2-DIPHENYL-N-[3-(4,5,6-TRIFLUOROSPIRO[1,3-DIHYDROISOBENZOFURAN-3,4′-PIPERIDINE]-10-YL)PROPYL]ACETAMIDE], the affinity, expressed as Ki, was 11.6 nM.

`O=C(NCCCCCCN1CCC2(CCc3ccccc32)CC1)C(c1ccccc1)c1ccccc1` [Example 5, 2,2-DIPHENYL-N-(6-(SPIRO[INDANE-1,4′-PIPERIDINE]-10-Y)LHEXYL)ACETAMIDE] registered an inhibition constant Ki of 732 nM.

For the molecule `O=C(NCCCN1CCC2(CC1)OCc1ccccc12)C1(c2ccc(F)cc2)CCCC1` [Example 79, [(4-FLUOROPHENYL)CYCLOPENTYL]-N-(3-(SPIRO[1,3-DIHYDROISOBENZOFURAN-1,4′-PIPERIDINE]-10-YL)PROPYL)CARBOXAMIDE], the Ki was found to be 514 nM.

In the case of `S=C(NCCCCN1CCC2(CCc3ccccc32)CC1)Nc1cccc2ccccc12` [Example 23, (NAPHTHYLAMINO)[(4-(SPIRO[INDANE-1,4′-PIPERIDINE]-10-YL-BUTYL)AMINO]METHANE-1-THIONE], the Ki came to 818 nM.

Still in this assay, the particulars now being: cloned rat MCH1, membranes of transfected Peakr293 cells, 0.08 nM [3H]Compound A, 25° C., 90 minutes; read-out: KI.
`O=C(NCCCCN1CCC2(CCc3ccccc32)CC1)Nc1ccc(-c2ccccc2)cc1` [Example 28, N-(4-PHENYL)PHENYL)[(4-(SPIRO[INDANE-1,4′-PIPERIDINE]-10-YL)BUTYL)AMINO]CARBOXAMIDE]: the inhibition constant Ki is 549 nM.

`O=C(NCCCCCCN1CCC2(CCc3ccccc32)CC1)c1ccc(-c2ccccc2)cc1` [Example 29, (4-PHENYL)PHENYL)-N-(6-(SPIRO[INDANE-1,4′-PIPERIDINE]-10-YL)HEXYL)CARBOXAMIDE]: the inhibition constant Ki worked out at 431 nM.

In the case of `Cc1ccc(C(C(=O)NCCCN2CCC3(CC2)OCc2ccccc23)c2ccc(C)cc2)cc1` [Example 78, 2,2-BIS(4-METHYL)PHENYL)-N-(3-(SPIRO[1,3-DIHYDROISOBENZOFURAN-1,4′-PIPERIDINE]-10-YL)PROPYL)ACETAMIDE], the Ki was 19.7 nM.

In the case of `O=C(NCCCN1CCC2(C=Cc3ccccc32)CC1)C(c1ccccc1)c1ccccc1` [Example 38, 2,2-DIPHENYL-N-(3-SPIRO[INDENE-1,4′-PIPERIDINE]-10-YLPROPYL)ACETAMIDE], the Ki was found to be 6.5 nM.

Take `O=C(NCCCN1CCC2(CCc3ccccc32)CC1)C(c1ccc(Cl)cc1)c1ccc(Cl)cc1` [Example 55, 2,2-BIS(4-CHLOROPHENYL)-N-(3-(SPIRO[INDANE-1,4′-PIPERIDINE]-10-YL)PROPYL)ACETAMIDE]: the inhibition constant Ki worked out at 8.6 nM.

For `O=C(NCCCCN1CCC2(CCc3ccccc32)CC1)c1ccc(F)c(F)c1` [Example 60, (3,4-DIFLUOROPHENYL)-N-(4-(SPIRO[INDANE-1,4′-PIPERIDINE]-10-YL)BUTYL)CARBOXAMIDE], the Ki was 42.3 nM.

Take `O=C(NCCCCCCN1CCC2(CCc3ccccc32)CC1)c1ccc(-c2ccccc2)cc1` [Example 2, (4-PHENYL)PHENYL)-N-(6-(SPIRO[INDANE-1,4′-PIPERIDINE]-10-YL)HEXYL)CARBOXAMIDE]: the inhibitory constant (Ki) turned out to be 970 nM.

On to `O=C(NCCN1CCC2(CCc3ccccc32)CC1)c1ccc(F)c(F)c1` [Example 45, (3,4-DIFLUOROPHENYL)-N-(2-(SPIRO[INDANE-1,4′-PIPERIDINE]-10-YLETHYL)CARBOXAMIDE], for which the Ki worked out at 802 nM.

Regarding `O=C(NCCCN1CCC2(CCc3ccccc32)CC1)C(c1ccc(F)cc1)c1ccc(F)cc1` [Example 57, 2,2-BIS(4-FLUOROPHENYL)-N-(3-(SPIRO[INDANE-1,4′-PIPERIDINE]-10-YL)PROPYL)ACETAMIDE], the Ki amounted to 4.2 nM.

As to `O=C(NCCN1CCC2(CCc3ccccc32)CC1)c1cc(Cl)cc(Cl)c1` [Example 44, (3,5-DICHLOROPHENYL)-N-(2-(SPIRO[INDANE-1,4′-PIPERIDINE]-10-YLETHYL)CARBOXAMIDE], the Ki turned out to be 182 nM.

With `CC(C(=O)NCCCN1CCC2(C=Cc3ccccc32)CC1)c1ccc(Cl)cc1` (stereo not shown) [Example 66, 2-(4-CHLOROPHENYL)-N-(3-(SPIRO[INDENE-1,4′-PIPERIDINE]-10-YL)PROPYL)PROPANAMIDE], the Ki was found to be 140 nM.

As to `O=C(NCCCCCN1CCC2(C=Cc3ccccc32)CC1)c1sc2ccccc2c1Cl` [Example 36, (3-CHLOROBENZO[B]THIOPHEN-2-YL)-N-(5-(SPIRO[INDENE-1,4′-PIPERIDINE]-10-YL)PENTYL)CARBOXAMIDE], the inhibition constant Ki turned out to be 736 nM.

With `O=C(NCCCN1CCC2(CC1)C(=O)CCc1ccccc12)C(c1ccccc1)c1ccccc1` [Example 98, N-[3-(2-OXOSPIRO[1,3,4-TRIHYDRONAPHTHALENE-1,4′-PIPERIDINE]-11-YL)PROPYL]-2,2-DIPHENYLACETAMIDE], the Ki worked out at 682 nM.

Turning to `O=C(NCCCN1CCC2(CC1)OCc1ccccc12)C(c1ccc(Cl)cc1)c1ccc(Cl)cc1` [Example 90, 2,2-BIS(4-CHLOROPHENYL)-N-(3-(SPIRO[1,3-DIHYDROISOBENZOFURAN-1,4′-PIPERIDINE]-10-YL)PROPYL)ACETAMIDE], the Ki was found to be 5.4 nM.

In the case of `O=C(NCCCN1CCC2(C=Cc3ccccc32)CC1)C1(c2ccc(Cl)cc2)CCCCC1` [Example 71, [(4-CHLOROPHENYL)CYCLOHEXYL]-N-(3-(SPIRO[INDENE-1,4′-PIPERIDINE]-10-YL)PROPYL)CARBOXAMIDE], the inhibition constant Ki worked out at 71 nM.

Turning to `CC(C(=O)NCCCN1CCC2(CC1)OCc1ccccc12)c1ccc(Cl)cc1` (stereo not shown) [Example 83, 2-(4-CHLOROPHENYL)-N-(3-(SPIRO[1,3-DIHYDROISOBENZOFURAN-1,4′-PIPERIDINE]-10-YL)PROPYL)PROPANAMIDE], the Ki amounted to 557 nM.

Consider `O=C(NCCCN1CCC2(CC1)Cc1ccccc1C2=O)C(c1ccc(F)cc1)c1ccc(F)cc1` [Example 92, 2,2-BIS(4-FLUOROPHENYL)-N-[3-(1-OXOSPIRO[INDANE-2,4′-PIPERIDINE]-10-YL)PROPYL]ACETAMIDE], for which the Ki worked out at 61.6 nM.

`O=C(NCCCCN1CCC2(CCc3ccccc32)CC1)c1cc(F)cc(F)c1` [Example 13, (3,5-DIFLUOROPHENYL)-N-(4-(SPIRO[INDANE-1,4′-PIPERIDINE]-10-YL)BUTYL)CARBOXAMIDE]: the inhibitory constant (Ki) came out at 270 nM.

For `O=C(NCCCCCN1CCC2(CCc3ccccc32)CC1)Nc1ccc(-c2ccccc2)cc1` [Example 27, N-(4-PHENYL)PHENYL)[(5-(SPIRO[INDANE-1,4′-PIPERIDINE]-10-YL)PENTYL)AMINO]CARBOXAMIDE], the Ki stood at 662 nM.

For the molecule `CC(C)c1ccc2c(c1)COC21CCN(CCCNC(=O)C(c2ccccc2)c2ccccc2)CC1` [Example 102, N-{3-[5-(METHYLETHYL)SPIRO[1,3-DIHYDROISOBENZOFURAN-1,4′-PIPERIDINE]-10-YL]PROPYL}-2,2-DIPHENYLACETAMIDE], the Ki is 162 nM.

As for `O=C(NCCCN1CCC2(C=Cc3ccccc32)CC1)C1(c2ccc(F)cc2)CCCCC1` [Example 72, [(4-FLUOROPHENYL)CYCLOHEXYL]-N-(3-(SPIRO[INDENE-1,4′-PIPERIDINE]-10-YL)PROPYL)CARBOXAMIDE], the Ki worked out at 131 nM.

As a reminder, the Ki is the equilibrium dissociation constant of an inhibitor or competing ligand from its target.
